The NIST ThermoML archive (doi:10.1021/je300810p)
± gives the expanded uncertainty stated by the source.

How the values were obtained:
[1] = Liquid; for mass density: 101.33 kPa, Pycnometric method
[2] = refractive index (Na D-line) (dimensionless); conditions: 101.33 kPa, Liquid, Standard Abbe refractometry

| SMILES | mass density ([1]; 298.15 K) [kg/m3] | vapor or sublimation pressure ([1]; 391.43 K) [kPa] | refractive index ([2]; 298.15 K) | mass density ([1]; 289.15 K) [kg/m3] | vapor or sublimation pressure ([1]; 293.91 K) [kPa] | refractive index ([2]; 293.15 K) | vapor or sublimation pressure ([1]; 351.46 K) [kPa] |
| --- | --- | --- | --- | --- | --- | --- | --- |
| CC(=O)O [acetic acid] | 1049.42 ± 0.45 | 101.33 ± 3.4 | 1.3716 ± 0.0025 | – | – | – | – |
| CC=O [ethanal] | – | – | – | 788.02 ± 0.36 | 101.33 ± 2.6 | 1.3328 ± 0.0025 | – |
| CCO [ethanol] | 784.88 ± 0.36 | – | 1.3592 ± 0.0025 | – | – | – | 101.33 ± 2.6 |
